Publication PMC3073382 (Journal of medicinal chemistry, 2010)

Target: PKA (catalytic subunit) (Bos taurus, UniProt P00517)
Assay: biochemical

IC50: 110 nM
SMILES: O=C(N[C@@H]1CNCCC[C@H]1OC(=O)c1cc(O)c(C(=O)c2c(O)cccc2C(=O)O)c(O)c1)c1ccc(O)cc1 [balanol]
